The source made the active and inactive calls. The rule behind the calls is not given here.
Tests used:
Acetylcholinesterase = Acetylcholinesterase (Electrophorus electricus, UniProt O42275)
Description: Inhibition of electric eel AChE assessed as inhibition of acetylthiocholine chloride substrate hydrolysis incubated for 15 mins before substrate addition measured by spectrophotometry

Cholinesterase = Cholinesterase (Equus caballus, UniProt P81908)
Description: Inhibition of equine serum BuChE assessed as inhibition of butyrylthiocholine chloride substrate hydrolysis incubated for 15 mins before substrate addition measured by spectrophotometry

[1] = biological target: Acetylcholinesterase (Electrophorus electricus) (UniProt O42275); test: Binding affinity at electric eel AChE catalytic active site assessed as inhibition of acetylthiocholine chloride substrate hydrolysis incubated for 15 mins before substrate addition measured by spectrophotometry based Lineweaver-Burk plot analysis
Sequence of Acetylcholinesterase (Electrophorus electricus) (O42275 24-633 limits assumed): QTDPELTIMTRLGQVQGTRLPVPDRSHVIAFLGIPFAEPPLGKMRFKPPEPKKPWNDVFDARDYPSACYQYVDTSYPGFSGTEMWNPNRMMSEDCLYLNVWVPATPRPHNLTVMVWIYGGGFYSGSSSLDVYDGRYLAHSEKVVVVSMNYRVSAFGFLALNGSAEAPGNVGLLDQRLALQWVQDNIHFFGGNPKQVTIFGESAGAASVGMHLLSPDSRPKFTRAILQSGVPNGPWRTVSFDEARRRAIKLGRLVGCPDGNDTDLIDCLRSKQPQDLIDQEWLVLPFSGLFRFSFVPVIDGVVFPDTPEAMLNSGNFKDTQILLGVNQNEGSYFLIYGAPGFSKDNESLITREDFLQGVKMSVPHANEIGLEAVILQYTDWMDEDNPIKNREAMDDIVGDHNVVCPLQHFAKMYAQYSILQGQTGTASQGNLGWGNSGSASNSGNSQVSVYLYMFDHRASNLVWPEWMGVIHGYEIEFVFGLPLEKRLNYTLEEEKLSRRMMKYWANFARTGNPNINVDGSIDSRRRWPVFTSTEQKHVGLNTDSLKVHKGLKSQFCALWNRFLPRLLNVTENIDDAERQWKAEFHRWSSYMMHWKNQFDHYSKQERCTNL

[2] = biological target: Acetylcholinesterase (Electrophorus electricus) (UniProt O42275); test: Binding affinity at electric eel AChE peripheral anionic site assessed as inhibition of acetylthiocholine chloride substrate hydrolysis incubated for 15 mins before substrate addition measured by spectrophotometry based Lineweaver-Burk plot analysis
[3] = Inhibition of amyloid beta (1 to 42) self-aggregation at 20 uM after 48 hrs by thioflavin T fluorescent dye assay

Sequence of Cholinesterase (P81908 whole entry): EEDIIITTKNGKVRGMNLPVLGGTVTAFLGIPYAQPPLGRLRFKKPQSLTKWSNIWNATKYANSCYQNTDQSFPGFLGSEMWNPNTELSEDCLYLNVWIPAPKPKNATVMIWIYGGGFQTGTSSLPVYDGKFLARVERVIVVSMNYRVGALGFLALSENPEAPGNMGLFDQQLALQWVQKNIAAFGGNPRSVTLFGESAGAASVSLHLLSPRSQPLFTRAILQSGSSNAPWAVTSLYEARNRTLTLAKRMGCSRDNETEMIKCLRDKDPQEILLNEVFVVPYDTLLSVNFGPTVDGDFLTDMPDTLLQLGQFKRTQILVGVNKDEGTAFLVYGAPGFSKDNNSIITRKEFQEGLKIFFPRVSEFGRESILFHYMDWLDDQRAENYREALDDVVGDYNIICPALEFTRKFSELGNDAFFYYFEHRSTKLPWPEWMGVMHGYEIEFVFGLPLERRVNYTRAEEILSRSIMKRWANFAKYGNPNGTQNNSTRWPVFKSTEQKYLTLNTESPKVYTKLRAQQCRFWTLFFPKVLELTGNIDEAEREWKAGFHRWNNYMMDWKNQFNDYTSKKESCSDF
Sequence of Acetylcholinesterase (O42275 whole entry): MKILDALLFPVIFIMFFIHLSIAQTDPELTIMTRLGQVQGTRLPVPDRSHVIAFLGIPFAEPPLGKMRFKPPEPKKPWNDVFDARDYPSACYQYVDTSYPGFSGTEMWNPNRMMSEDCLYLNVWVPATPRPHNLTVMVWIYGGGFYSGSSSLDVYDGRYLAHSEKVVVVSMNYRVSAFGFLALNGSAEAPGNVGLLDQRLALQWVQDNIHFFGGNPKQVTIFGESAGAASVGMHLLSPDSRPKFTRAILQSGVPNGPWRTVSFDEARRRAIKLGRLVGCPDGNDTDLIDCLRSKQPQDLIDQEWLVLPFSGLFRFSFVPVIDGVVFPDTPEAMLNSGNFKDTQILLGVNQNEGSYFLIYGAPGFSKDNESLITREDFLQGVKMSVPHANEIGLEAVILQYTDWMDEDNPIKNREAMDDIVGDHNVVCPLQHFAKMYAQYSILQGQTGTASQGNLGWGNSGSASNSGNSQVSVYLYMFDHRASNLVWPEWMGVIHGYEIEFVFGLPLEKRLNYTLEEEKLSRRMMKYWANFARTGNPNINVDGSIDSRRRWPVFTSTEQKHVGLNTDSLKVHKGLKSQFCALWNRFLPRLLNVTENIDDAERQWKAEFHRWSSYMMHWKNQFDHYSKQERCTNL

SMILES | IC50 (Acetylcholinesterase) [nM] | IC50 (Cholinesterase) [nM] | inhibition [1] | inhibition [2] | inhibition [3]
Oc1ccccc1CNCCCCCCCCNc1c2c(nc3ccccc13)CCCC2 | 12.5 | 10.2 | – | – | –
COc1cc(CNCCCCCCCCNc2c3c(nc4ccccc24)CCCC3)ccc1O | 4.55 | 3.41 | Active | Active | 71%
c1ccc2c(NCCCCCCCCNCc3ccc4c(c3)OCO4)c3c(nc2c1)CCCC3 | 6.14 | 3.44 | – | – | –
COc1ccc(CNCCCCNc2c3c(nc4ccccc24)CCCC3)cc1OC | 365 | 37.2 | – | – | Active
Oc1ccc(CNCCCCCCNc2c3c(nc4ccccc24)CCCC3)cc1 | 25.6 | 7.5 | – | – | –
COc1cc(CNCCCCCCCCNc2c3c(nc4ccccc24)CCCC3)cc(OC)c1O | 4.61 | 4.08 | – | – | –
Oc1ccc(CNCCCCCCCCNc2c3c(nc4ccccc24)CCCC3)cc1 | 7.48 | 5.31 | – | – | –
O=C(NCCCCCCCCNc1c2c(nc3ccccc13)CCCC2)c1ccncc1 | 38.5 | 38.7 | – | – | –
COc1ccc(CNCCCCCCCCNc2c3c(nc4ccccc24)CCCC3)cc1 | 15.3 | 4.82 | – | – | –
COc1cc(CNCCCCCCNc2c3c(nc4ccccc24)CCCC3)ccc1O | 43.6 | 9.28 | – | – | –
COc1cc(/C=C/C(=O)CC(=O)/C=C/c2ccc(O)c(OC)c2)ccc1O | – | – | – | – | 50%
COc1ccc(CNCCCCCCNc2c3c(nc4ccccc24)CCCC3)cc1OC | – | – | – | – | Active
COc1ccc(CNCCCCCNc2c3c(nc4ccccc24)CCCC3)cc1OC | 104 | 24.4 | – | – | –
Oc1cccc(CNCCCCCCCCNc2c3c(nc4ccccc24)CCCC3)c1 | 15.1 | 4.91 | – | – | –
c1ccc2c(NCCCCCCCCNCc3ccncc3)c3c(nc2c1)CCCC3 | 4.7 | 4.66 | – | – | –
